Consider 2 compounds from patent publication US20110065782A1, “METHODS OF IDENTIFYING COMPOUNDS THAT INHIBIT THE ACTIVATION OF A BIOMOLECULE AND METHODS OF TREATMENT USING THE COMPOUNDS” (priority 2009, published 2011).

Where only a bound is given, the exact number is not on record here.

For experiment [1], the target named is T1, calmodulin (CaM) (Homo sapiens, UniProt P0DP23).
T1 construct: made in house
In words: CaM binding of peptide P233-254 probed by steady-state tryptophan anisotropy fluorescence. The following applies: 10 μM TUAdiCl; for fluorescence anisotropy (r) of P233-254 peptide: peptide 2 μM, calcium present.

Experiment [2] has as its target Edema Factor (EF) (Bacillus anthracis, UniProt P40136). In words: biochemical. The class given is biochemical.
Experiment [3] has as its target preformed EF-CaM complex (Bacillus anthracis, UniProt P40136). The class given is biochemical.
In experiment [4] the target is T2, adenylate cyclase toxin (CyaA) (Bordetella pertussis, UniProt P0DKX7).
T2 construct: made in house
In words: Colorimetric adenylate cyclase enzymatic assay on CyaA. The following applies: concentration not given. The class given is biochemical.

Sequence of Edema Factor (EF) (P40136 34-800 limits assumed): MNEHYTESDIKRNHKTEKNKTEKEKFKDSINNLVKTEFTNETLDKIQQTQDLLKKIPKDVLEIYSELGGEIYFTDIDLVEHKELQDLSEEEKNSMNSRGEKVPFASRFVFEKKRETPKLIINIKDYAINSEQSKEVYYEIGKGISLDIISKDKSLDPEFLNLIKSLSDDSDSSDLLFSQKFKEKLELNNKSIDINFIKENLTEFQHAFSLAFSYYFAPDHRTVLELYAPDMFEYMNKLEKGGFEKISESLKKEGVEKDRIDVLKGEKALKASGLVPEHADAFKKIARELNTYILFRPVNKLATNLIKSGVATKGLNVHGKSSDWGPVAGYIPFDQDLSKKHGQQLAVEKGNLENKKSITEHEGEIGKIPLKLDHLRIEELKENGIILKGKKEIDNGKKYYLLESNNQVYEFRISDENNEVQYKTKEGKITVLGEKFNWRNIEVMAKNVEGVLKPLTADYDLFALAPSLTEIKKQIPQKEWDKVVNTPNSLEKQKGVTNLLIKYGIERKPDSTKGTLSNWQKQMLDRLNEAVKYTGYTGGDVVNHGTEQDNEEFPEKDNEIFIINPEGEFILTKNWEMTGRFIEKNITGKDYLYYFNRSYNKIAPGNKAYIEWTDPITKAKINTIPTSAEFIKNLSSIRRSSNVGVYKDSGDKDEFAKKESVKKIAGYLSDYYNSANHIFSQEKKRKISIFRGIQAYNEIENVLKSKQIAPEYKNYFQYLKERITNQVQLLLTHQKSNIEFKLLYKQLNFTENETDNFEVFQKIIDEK
T2 sequence (P0DKX7 whole entry, looked up): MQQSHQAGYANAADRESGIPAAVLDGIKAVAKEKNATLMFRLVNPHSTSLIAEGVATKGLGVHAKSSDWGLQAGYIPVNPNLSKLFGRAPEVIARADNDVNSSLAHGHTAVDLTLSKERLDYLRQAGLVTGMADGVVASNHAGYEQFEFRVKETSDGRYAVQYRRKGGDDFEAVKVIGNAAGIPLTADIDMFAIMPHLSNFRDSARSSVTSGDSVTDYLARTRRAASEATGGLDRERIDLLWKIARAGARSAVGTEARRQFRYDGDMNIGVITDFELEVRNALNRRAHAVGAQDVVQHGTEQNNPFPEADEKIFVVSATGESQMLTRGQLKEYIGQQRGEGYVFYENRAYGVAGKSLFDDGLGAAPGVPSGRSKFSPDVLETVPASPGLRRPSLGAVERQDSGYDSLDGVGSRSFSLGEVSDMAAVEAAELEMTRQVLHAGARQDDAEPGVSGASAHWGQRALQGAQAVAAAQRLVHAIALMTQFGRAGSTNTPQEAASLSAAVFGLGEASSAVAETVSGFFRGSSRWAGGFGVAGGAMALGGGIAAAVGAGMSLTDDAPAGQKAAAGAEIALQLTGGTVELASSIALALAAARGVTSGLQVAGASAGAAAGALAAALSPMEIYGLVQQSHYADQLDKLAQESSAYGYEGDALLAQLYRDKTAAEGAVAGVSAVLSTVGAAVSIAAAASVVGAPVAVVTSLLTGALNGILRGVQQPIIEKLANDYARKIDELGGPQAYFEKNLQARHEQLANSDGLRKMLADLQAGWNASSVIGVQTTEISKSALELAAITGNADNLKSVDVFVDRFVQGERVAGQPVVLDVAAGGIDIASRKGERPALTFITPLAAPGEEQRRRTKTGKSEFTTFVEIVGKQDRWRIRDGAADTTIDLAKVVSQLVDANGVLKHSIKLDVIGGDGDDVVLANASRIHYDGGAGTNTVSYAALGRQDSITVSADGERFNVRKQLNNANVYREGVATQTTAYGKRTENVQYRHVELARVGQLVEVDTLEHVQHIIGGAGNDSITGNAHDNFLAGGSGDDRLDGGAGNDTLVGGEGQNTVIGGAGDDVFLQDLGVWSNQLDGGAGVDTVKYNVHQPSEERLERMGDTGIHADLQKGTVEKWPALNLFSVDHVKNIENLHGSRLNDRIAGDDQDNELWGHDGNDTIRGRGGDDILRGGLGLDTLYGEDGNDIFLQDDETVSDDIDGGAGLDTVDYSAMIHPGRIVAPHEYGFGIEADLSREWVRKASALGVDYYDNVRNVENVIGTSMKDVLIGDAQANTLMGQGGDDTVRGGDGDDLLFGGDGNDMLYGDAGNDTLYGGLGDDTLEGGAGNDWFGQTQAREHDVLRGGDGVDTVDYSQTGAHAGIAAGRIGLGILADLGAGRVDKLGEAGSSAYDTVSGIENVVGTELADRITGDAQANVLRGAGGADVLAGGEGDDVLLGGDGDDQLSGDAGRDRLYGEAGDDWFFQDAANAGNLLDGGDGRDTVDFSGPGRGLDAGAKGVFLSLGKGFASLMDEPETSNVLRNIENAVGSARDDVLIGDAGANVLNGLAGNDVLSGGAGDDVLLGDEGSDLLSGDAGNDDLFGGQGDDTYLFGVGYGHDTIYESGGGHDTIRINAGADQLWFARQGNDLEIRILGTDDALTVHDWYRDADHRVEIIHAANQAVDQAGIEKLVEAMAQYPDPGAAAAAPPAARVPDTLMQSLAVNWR
Sequence of preformed EF-CaM complex (P40136 whole entry, looked up, one chain of several): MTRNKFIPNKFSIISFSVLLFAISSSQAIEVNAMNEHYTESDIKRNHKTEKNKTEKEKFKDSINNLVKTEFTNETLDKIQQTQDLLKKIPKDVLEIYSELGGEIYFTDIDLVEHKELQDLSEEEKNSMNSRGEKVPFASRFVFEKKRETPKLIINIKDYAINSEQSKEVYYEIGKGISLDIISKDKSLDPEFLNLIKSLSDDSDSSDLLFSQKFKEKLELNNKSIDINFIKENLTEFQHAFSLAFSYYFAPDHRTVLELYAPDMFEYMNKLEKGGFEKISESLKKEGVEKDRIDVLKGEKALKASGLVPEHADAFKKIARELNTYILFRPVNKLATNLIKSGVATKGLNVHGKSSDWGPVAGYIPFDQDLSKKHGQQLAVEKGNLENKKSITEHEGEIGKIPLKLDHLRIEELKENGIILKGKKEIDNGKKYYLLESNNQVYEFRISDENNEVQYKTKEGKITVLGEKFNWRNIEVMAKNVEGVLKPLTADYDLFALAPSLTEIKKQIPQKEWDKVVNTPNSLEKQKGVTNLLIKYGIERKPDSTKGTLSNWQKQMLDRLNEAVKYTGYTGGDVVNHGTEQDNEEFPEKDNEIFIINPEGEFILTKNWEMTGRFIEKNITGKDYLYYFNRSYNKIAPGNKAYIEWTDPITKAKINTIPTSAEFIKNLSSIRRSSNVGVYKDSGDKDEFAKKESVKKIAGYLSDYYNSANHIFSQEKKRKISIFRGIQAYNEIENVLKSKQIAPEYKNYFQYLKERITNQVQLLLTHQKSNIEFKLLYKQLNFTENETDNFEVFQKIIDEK

For the compound `O=C(Nc1ccc(Cl)c(Cl)c1)Nc1cc(-c2ccccc2)sc1C(=O)O` [TUAdiCl], the “effect on the ability of CaM to associate with CaM-binding peptide from CyaA” value in experiment [1] is “no effect”. The “fluorescence anisotropy (r) of P233-254 peptide” value in experiment [1] (with equimolar CaM) came out at 0.095. In addition, the “fluorescence anisotropy (r) of P233-254 peptide” value in experiment [1] (without CaM) turned out to be 0.027. In experiment [2], the concentration for half-maximal inhibition (IC50) was in the range of 2000 to 3000 nM, the “concentration at which EF activity is inhibited” value is reported as “less than 10 μM” and the inhibition at 100 µM was determined as 98 ± 6%. Further, the inhibition at 10 µM in experiment [2] (read-out: inhibition of EF enzymatic activity) is more than 80%. Also, the “inhibition of enzymatic activity of the preformed EF-CaM complex” value in experiment [3] is recorded as “significantly inhibit”.

As to `O=C(Nc1ccc(Cl)c(Cl)c1)Nc1cc(-c2ccccc2)sc1C(=O)O` [drawing 10], the “inhibition of CyaA activity” value in experiment [4] is given as “inhibit CyaA activity”.
